Assay results reported in PubChem BioAssay AID296 (DTP/NCI, 2004).
Several values for one entry are separate records, joined by “and”; a condition that tells them apart may be missing. Equal entries are not always repeated. Results filed as inconclusive are left out.

Tested on: MX-1 breast xenograft, nude mice, tumor weight T/C
Experiment: NCI In Vivo Anticancer Drug Screen. Data for tumor model Human Mammary Carcinoma MX-1 Xenograft (intrarenal inoculation) in NU/NU Swiss (nude) mice
Conditions: endpoint: mean tumor weight change, higher = larger tumour
Summary of the method: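 Compound dosed to mice with transplantable tumor; vehicle group as control. Endpoint survival or tumour size, reported as T/C.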

[1] = dose: 100.0 mg/kg/injection, schedule: Q01DX010 (sc), vehicle: saline with Tween-80
[2] = dose: 400.0 mg/kg/injection, schedule: Q01DX010 (sc), vehicle: saline with Tween-80
[3] = dose: 75.0 mg/kg/injection, schedule: Q04DX003 (sc), vehicle: Klucel (hydroxypropylcellulose) (HPC)
[4] = dose: 300.0 mg/kg/injection, schedule: Q04DX003 (sc), vehicle: Klucel (hydroxypropylcellulose) (HPC)
[5] = dose: 600.0 mg/kg/injection, schedule: Q04DX003 (sc), vehicle: Klucel (hydroxypropylcellulose) (HPC)

SMILES: Cc1ncc([N+](=O)[O-])n1CCSC(N)=O
- T/C (dose: 50.0 mg/kg/injection, schedule: Q01DX010 (sc), vehicle: saline with Tween-80): 103 % of control
- T/C [1]: 15 % of control
- T/C (dose: 200.0 mg/kg/injection, schedule: Q01DX009 (sc), vehicle: saline with Tween-80): 17 % of control
- T/C (dose: 400.0 mg/kg/injection, schedule: Q01DX009 (sc), vehicle: saline with Tween-80): 42 % of control
- T/C [2]: 77 % of control and 83 % of control and 86 % of control
- T/C (dose: 800.0 mg/kg/injection, schedule: Q01DX009 (sc), vehicle: saline with Tween-80): 5 % of control

SMILES: COc1nc(=O)n(C2C=CC(=O)O2)cc1F (stereo not given)
- T/C [3]: 116 % of control

SMILES: O=C(C#Cc1ccccc1)c1ccccc1
- T/C (dose: 50.0 mg/kg/injection, schedule: Q04DX003 (sc), vehicle: Klucel (hydroxypropylcellulose) (HPC)): 76 % of control
- T/C (dose: 100.0 mg/kg/injection, schedule: Q04DX003 (sc), vehicle: Klucel (hydroxypropylcellulose) (HPC)): 113 % of control
- T/C (dose: 200.0 mg/kg/injection, schedule: Q04DX003 (sc), vehicle: Klucel (hydroxypropylcellulose) (HPC)): 87 % of control
- T/C [4]: 87 % of control
- T/C (dose: 400.0 mg/kg/injection, schedule: Q04DX003 (sc), vehicle: Klucel (hydroxypropylcellulose) (HPC)): 42 % of control
- T/C [5]: 110 % of control
- T/C (dose: 1200.0 mg/kg/injection, schedule: Q04DX003 (sc), vehicle: Klucel (hydroxypropylcellulose) (HPC)): 104 % of control

SMILES: C=C(Cl)C(=NC(C)(C)C)Nc1ccccc1C
- T/C [3]: 96 % of control

SMILES: Cc1cccc(OCC(O)CN2CC2)c1 (stereo not given)
- T/C (dose: 50.0 mg/kg/injection, schedule: Q04DX003 (ip), vehicle: saline with Tween-80): 70 % of control
- T/C (dose: 100.0 mg/kg/injection, schedule: Q04DX003 (ip), vehicle: saline with Tween-80): 58 % of control
- T/C (dose: 200.0 mg/kg/injection, schedule: Q04DX003 (ip), vehicle: saline with Tween-80): 43 % of control

SMILES: NC(Cn1ccc(=O)c(O)c1)C(=O)O (stereo not given)
- T/C (dose: 300.0 mg/kg/injection, schedule: Q04DX003 (sc), vehicle: saline): 72 % of control
- T/C (dose: 1200.0 mg/kg/injection, schedule: Q04DX003 (sc), vehicle: saline): 88 % of control
- T/C (dose: 2400.0 mg/kg/injection, schedule: Q04DX003 (sc), vehicle: saline): 88 % of control

SMILES: CCC1=C[C@H]2CN(CCc3c([nH]c4ccccc34)[C@@](C(=O)OC)(c3cc4c(cc3OC)N(C)[C@H]3[C@@](O)(C(=O)OC)[C@H](OC(C)=O)[C@]5(CC)C=CCN6CC[C@]43[C@@H]65)C2)C1
- T/C (dose: 3.0 mg/kg/injection, schedule: Q04DX003 (sc), vehicle: water): 108 % of control
- T/C (dose: 6.0 mg/kg/injection, schedule: Q04DX003 (sc), vehicle: water): 84 % of control
- T/C (dose: 12.0 mg/kg/injection, schedule: Q04DX003 (sc), vehicle: water): 56 % of control

SMILES: CCOC(=O)c1ccc(NC(=O)Nc2nccs2)cc1
- T/C (dose: 25.0 mg/kg/injection, schedule: Q01DX010 (sc), vehicle: saline with Tween-80): 100 % of control
- T/C [1]: 97 % of control and 108 % of control
- T/C (dose: 200.0 mg/kg/injection, schedule: Q01DX010 (sc), vehicle: saline with Tween-80): 63 % of control
- T/C [2]: 186 % of control

SMILES: Cc1ccc(S(=O)(=O)N/N=C/C(Br)=C(/Br)C(=O)O)cc1
- T/C (dose: 2.5 mg/kg/injection, schedule: Q04DX003 (sc), vehicle: saline): 95 % of control
- T/C (dose: 5.0 mg/kg/injection, schedule: Q04DX003 (sc), vehicle: saline): 100 % of control
- T/C (dose: 10.0 mg/kg/injection, schedule: Q04DX003 (sc), vehicle: saline): 100 % of control
- T/C (dose: 20.0 mg/kg/injection, schedule: Q04DX003 (sc), vehicle: saline): 78 % of control
- T/C (dose: 150.0 mg/kg/injection, schedule: Q04DX003 (sc), vehicle: Klucel (hydroxypropylcellulose) (HPC)): 80 % of control
- T/C [4]: 71 % of control
- T/C [5]: 26 % of control

SMILES: NC(=O)/C=C/C(=O)c1c(Cl)cccc1Cl
- T/C (dose: 9.0 mg/kg/injection, schedule: Q04DX003 (sc), vehicle: saline with Tween-80): 78 % of control
- T/C (dose: 36.0 mg/kg/injection, schedule: Q04DX003 (sc), vehicle: saline with Tween-80): 43 % of control

SMILES: O=C(O)C1CC1.[Ag]
- T/C (dose: 75.0 mg/kg/injection, schedule: Q04DX003 (sc), vehicle: saline with Tween-80): 120 % of control
- T/C (dose: 150.0 mg/kg/injection, schedule: Q04DX003 (sc), vehicle: saline with Tween-80): 80 % of control
- T/C (dose: 300.0 mg/kg/injection, schedule: Q04DX003 (sc), vehicle: saline with Tween-80): 98 % of control
